The source of these data is US6602881B2, “Anti-inflammatory uses of manzamines” (priority 1999, dated 2003).

Assay type in all cases: cell-based
Experiment [1] deals with LPS activated BMΦ (rat microglia). In words: Assay for BMΦ O2− generation (SOD-inhibitable reduction of ferricytochrome C), PMA-stimulated, LPS-activated BMΦ. To be noted: PMA (1 μM)-stimulated O2− release from LPS (0.3 ng/ml, 17 h)-activated rat BMΦ, manzamine 20 min preincubation + 70 min. On the procedure: (§1) Isolation and culture of rat BMΦ. Briefly to prepare primary BMΦ cultures, cerebral cortices from 1-2-day-old Sprague-Dawley rats (Harlan, Indianapolis, Ind.) were placed in cold DMEM+10% heat-inactivated FBS+120 U/ml P and 12 μg/ml S, meninges carefully removed, brain tissue minced and dissociated with trypsin-EDTA at 37° C. for 3-5 minutes. The mixed glial cell suspension was plated in either 75 or 162 cm^2 culture flasks with DMEM containing 10% heat-inactivated FBS+120 U/ml P and 12 μg/ml S and grown in a humidified 5% CO2 incubator at 37° C. On day 7 of culture, flasks were shaken (90 rpm, 20 min, 37° C.) and media exchanged. On day 14 and every 3-4 days thereafter, BMΦ were detached using an orbital shaker (200 rpm, 2 hours, 37° C., 5% CO2), then centrifuged (450×g, 25 min, 4° C.). The pellet containing BMΦ was resuspended gently with cold DMEM, cell number and viability assessed by trypan blue exclusion. Purified BMΦ obtained by our method averaged>than 95% viability. Microglia were characterized as previously described (Mayer et al., 1999, supra).
Assay for BMΦ O2^− generation. BMΦ O2^− generation was determined by the superoxide dismutase(SOD)-inhibitable reduction of ferricytochrome C(FCC) (Mayer et al., 1999, supra). Briefly, spontaneous O2^− release from unstimulated BMΦ was measured in the presence of FCC (50 μM) and HBSS with or without SOD (700 units). To determine PMA-stimulated O2^− release, BMΦ containing wells received FCC, HBSS and PMA [1 μM] with or without SOD which inhibited>95% of FCC reduction. All experimental treatments were run in triplicate and in a final volume of 1 ml. Changes in absorbance of BMΦ supernatants were measured at 550 nm using a Beckman DU-650 Spectrophotometer. Differences in the amount of reduced FCC in the presence or absence of SOD were used to determine BMΦ O2^− generation by employing the molecular extinction coefficient of 21.0×10^3 M^−1 cm^−1.
(§2) To establish the effect of Manzamine A, B, C, D, E and F on BMΦ O2^−, TXB2, and LDH generation the following procedure was used:
(§3) (1) 2-5×10^5 BMΦ were seeded into each well of 24-well flat-bottom culture clusters.
(§4) (2) 1 ml of DMEM+10% heat-inactivated FBS+120 U/ml P and 12 μg/ml S were added.
(§5) (3) BMΦ were allowed to attach for 2 hours, at 37° C., 5% CO2, and monolayers then washed 3 times with 1 ml warm (37° C.) DMEM+10% heat-inactivated FBS+120 U/ml P and 12 μg/ml S were added.
(§6) (4) 1 ml of DMEM+10% heat-inactivated FBS+120 U/ml P and 12 μg/ml S were added.
(§7) (5) Then, LPS (0.3 ng/ml final concentration) was added to each well.
(§8) (6) BMΦ were then incubated for 17 hours in a humidified 5% CO2 incubator at 37° C.
(§9) (7) Thereafter, the media was removed from each tissue culture well and discarded.
(§10) (8) BMΦ monolayers were washed 3 times with 1 ml warm (37° C.) HBSS.
(§11) To study the effect of Manzamines A, B, C, D, E and F on PMA-stimulated release of O2^− and TXB2 from BMΦ activated with LPS as described in (A) we proceeded as follows.
(§12) (1) Add HBSS, Manzamines A, or B, or C, or D, or E, or F, DMSO and Triton X-100 1% to the tissue culture wells containing LPS-activated BMΦ, as shown in Table 1.
(§13) (2) Incubate the tissue culture plates for 20 minutes in a humidified 5% CO2 incubator at 37° C.
(§14) (3) Remove the tissue culture plates from the incubator and return to laminar flow hood.
(§15) (4) Incubate tissue culture plates for an additional 70 minutes in CO2 incubator at 37° C.
(5) When incubation is complete, aspirate BMΦ supernates from each well (1 ml), and place in a 1.5 ml microcuvette. Proceed to reach absorbance as indicated above in Assay for BMΦ O2^− generation.

Experiment [2] shares this test system. In words: Assay for BMΦ thromboxane B2 (TXB2) generation (immunoassay), PMA-stimulated, LPS-activated BMΦ. The conditions noted are these: PMA (1 μM)-stimulated TXB2 release from LPS (0.3 ng/ml, 17 h)-activated rat BMΦ, manzamine 20 min preincubation + 70 min. On the procedure:
as §1
Assay for BMΦ thromboxane B2 (TXB2) generation. Following stimulation with PMA, TXB2 generation in the BMΦ culture supernatants was measured using immunoassays (Cayman Chemical, Ann Arbor, Mich.) as indicated by the manufacturer's protocol (Mayer, et al., 1999, supra).
as §2, §3, §4, §5, §6, §7, §8, §9, §10, §11, §12, §13, §14, §15
(§16) (6) Once (5) is completed use the same BMΦ supernates to determine both LDH and TXB2 as described above in Assay for BMΦ TXB2 generation and LDH assay.

For experiment [3] the test system is unchanged. Kind of experiment: LDH assay (lactate dehydrogenase release, BMΦ viability). To be noted: LDH release (toxicity) from LPS-activated rat BMΦ, same supernates. As for the experimental part:
as §1
LDH assay. To assess BMΦ viability following incubation with vehicle (DMSO) or the manzamines, lactate dehydrogenase (LDH) release was determined spectrophotometrically as previously described (Mayer et al., 1999, supra).
as §2, §3, §4, §5, §6, §7, §8, §9, §10, §11, §12, §13, §14, §15, §16

As to `O[C@]12C=C(C3NCCc4c3[nH]c3ccccc43)[C@@H]3CCN(CCCC/C=C\CC1)C[C@@]31CC3/C=C\CCCCN3[C@H]12` (some centres unmarked) [Manzamine D, manzamine D], the results for the concentration for half-maximal inhibition (IC50) in experiment [1] (Microglia), in experiment [2] (Microglia) and in experiment [3] (Microglia) were around 0.5 µM, around 0.3 µM and around 0.5 µM, respectively.
For `O[C@]12C=C(c3nccc4c3[nH]c3ccccc34)[C@@H]3CCN(CCCC/C=C\CC1)C[C@@]31C[C@@H]3/C=C\CCCCN3[C@H]12` [Manzamine A, manzamine A], the IC50 was 0.1 µM in experiment [1], below 0.1 µM in experiment [2] and above 30 µM in experiment [3].
Consider `O=C1CCCN2C(CC1)C[C@]13CN4CCCC/C=C\CC[C@](O)(C=C(c5nccc6c5[nH]c5ccccc56)[C@@H]1CC4)[C@H]23` (some centres unmarked) [Manzamine E, manzamine E], for which the half-inhibitory concentration (IC50) in experiment [1] (Microglia) and in experiment [3] (Microglia) was above 10 µM in each case.
Take `C1=C\CC[C@]23CN4CCCC/C=C\CC[C@@]5(OC5[C@@H](c5nccc6c5[nH]c5ccccc56)[C@@H]2CC4)[C@@H]3NCCCC/1` (some centres unmarked) [Manzamine B, manzamine B]: the concentration for half-maximal inhibition (IC50) in experiment [1] (Microglia) is around 5 µM; in experiment [2] (Microglia), around 3 µM; in experiment [3] (Microglia), around 3 µM.
On to `C1=C\CCCCN(CCc2nccc3c2[nH]c2ccccc23)CCCC/1` [Manzamine C, manzamine C], for which the IC50 in experiment [1] (Microglia), in experiment [2] (Microglia) and in experiment [3] (Microglia) was around 5 µM in each case.
`O=C1CCCN2[C@@H](CC1)C[C@]13CN4CCCC/C=C\CC[C@](O)(C=C(c5nccc6c5[nH]c5c(O)cccc56)C1CC4)[C@H]23` (some centres unmarked) [Manzamine F, manzamine F]: the IC50 in experiment [1] (Microglia), in experiment [2] (Microglia) and in experiment [3] (Microglia) was above 10 µM each time.
